Results from US20090227674A1, “Combination methods fo saha and targretin for treating cancer” (priority 2005, published 2009).

System: HH cells (CTCL cells; ATCC)
Test: ViaLight Plus viability/proliferation assay, Vorinostat and Targretin combination
Format: cell-based
Procedure: Data from these assays was used to determine the range of combination concentrations. Both compounds were combined at concentrations close to their IC50 values. Subsequent combination viability/proliferation assays were performed using the ViaLight Plus protocol.
Costar white with clear bottom 96 well plates (#3603) were seeded with 25,000 cells per well in a volume of 100 μL/well of growth media for each time point. HH cell line growth media included RPMI (GIBCO #) with 10% FBS (GIBCO # SV30014.03), 1% Glutamax (GIBCO # 35050-061), and 1% Penicillin/Streptomycin (GIBCO # 30-002). […] For the fixed ratio method, compounds were combined and diluted together serially. […] For each treatment concentration, 25 μL of the appropriate dilution for each compound was added to the corresponding wells. Wells on the outer perimeter of the plate were not used. At each time-point, plates were read using the ViaLight Plus protocol. Luminescence was read using the Victor V plate reader.

Row | SMILES | decrease in viability (HH cell line, 0.60 μM Targretin alone (FIG. 1A)) [%] | cytotoxicity at 0.37 µM (Homo sapiens, HH, read-out: decrease in cell viability) [%]
1 | C=C(c1ccc(C(=O)O)cc1)c1cc2c(cc1C)C(C)(C)CCC2(C)C [Targretin®, 4-[1-(5,6,7,8-Tetrahydro-3,5,5,8,8-pentamethyl-2-naphthalenyl)ethenyl]benzoic acid] | ~40 | 
2 | O=C(CCCCCCC(=O)Nc1ccccc1)NO [Vorinostat, N-Hydroxy-N′-phenyl octanediamide] |  | ~40
